In ChEMBL document CHEMBL4507266, “Data for DCP probe BAY-784” (2021):

What was measured:
[1] = biological target: Receptor tyrosine-protein kinase erbB-2 (Homo sapiens) (UniProt P04626); conditions: Compound concentration 1000.0 nM
[2] = biological target: Tyrosine-protein kinase Tec (Homo sapiens) (UniProt P42680); conditions: Compound concentration 1000.0 nM
[3] = biological target: Atypical kinase COQ8B, mitochondrial (Homo sapiens) (UniProt Q96D53); conditions: Compound concentration 1000.0 nM
[4] = tested on: Tyrosine-protein kinase ABL1 (Homo sapiens), P00519 [F317L]; conditions: Compound concentration 1000.0 nM
[5] = tested on: Tyrosine-protein kinase ABL1 (Homo sapiens), P00519 [T315I]; conditions: Compound concentration 1000.0 nM
[6] = biological target: Serine/threonine-protein kinase TAO3 (Homo sapiens) (UniProt Q9H2K8); conditions: Compound concentration 1000.0 nM
[7] = biological target: 5-hydroxytryptamine receptor 1E (Homo sapiens) (UniProt P28566); conditions: Compound concentration 10.0 uM
[8] = tested on: Epidermal growth factor receptor (Homo sapiens), P00533 [G719C]; conditions: Compound concentration 1000.0 nM
[9] = biological target: T1, D(4) dopamine receptor (Homo sapiens) (UniProt P21917); conditions: Compound concentration 10.0 uM
T1 sequence (whole entry): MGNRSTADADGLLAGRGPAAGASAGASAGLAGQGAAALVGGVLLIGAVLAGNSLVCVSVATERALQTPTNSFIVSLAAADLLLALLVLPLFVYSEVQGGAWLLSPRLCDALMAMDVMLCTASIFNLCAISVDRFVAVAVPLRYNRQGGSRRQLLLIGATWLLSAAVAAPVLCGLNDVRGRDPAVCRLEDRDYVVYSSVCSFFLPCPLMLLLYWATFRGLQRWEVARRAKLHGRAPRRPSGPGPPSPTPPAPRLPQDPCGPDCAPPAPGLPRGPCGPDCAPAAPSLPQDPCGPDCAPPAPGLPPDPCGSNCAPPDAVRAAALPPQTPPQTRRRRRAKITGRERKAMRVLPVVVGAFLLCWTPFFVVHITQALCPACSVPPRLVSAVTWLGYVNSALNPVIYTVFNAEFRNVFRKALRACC

[10] = biological target: Cyclin-dependent kinase 14 (Homo sapiens) (UniProt O94921); conditions: Compound concentration 1000.0 nM
[11] = biological target: Tyrosine-protein kinase BTK (Homo sapiens) (UniProt Q06187); conditions: Compound concentration 1000.0 nM
[12] = biological target: Death-associated protein kinase 2 (Homo sapiens) (UniProt Q9UIK4); conditions: Compound concentration 1000.0 nM
Chain of Death-associated protein kinase 2 (Homo sapiens) (Q9UIK4 whole entry, looked up): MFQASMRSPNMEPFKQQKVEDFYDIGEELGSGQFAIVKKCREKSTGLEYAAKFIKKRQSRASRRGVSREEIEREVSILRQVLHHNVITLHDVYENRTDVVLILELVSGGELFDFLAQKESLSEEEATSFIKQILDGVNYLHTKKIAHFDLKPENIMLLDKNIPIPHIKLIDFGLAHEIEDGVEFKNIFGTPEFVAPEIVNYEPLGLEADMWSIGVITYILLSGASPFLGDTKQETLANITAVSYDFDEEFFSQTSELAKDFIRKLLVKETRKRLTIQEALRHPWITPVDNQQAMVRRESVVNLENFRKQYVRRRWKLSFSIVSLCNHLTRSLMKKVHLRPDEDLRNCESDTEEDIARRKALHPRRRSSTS

[13] = biological target: 1-phosphatidylinositol 3-phosphate 5-kinase (Homo sapiens) (UniProt Q9Y2I7); conditions: Compound concentration 1000.0 nM
[14] = biological target: Serine/threonine-protein kinase Chk2 (Homo sapiens) (UniProt O96017); conditions: Compound concentration 1000.0 nM
[15] = biological target: Ribosomal protein S6 kinase beta-1 (Homo sapiens) (UniProt P23443); conditions: Compound concentration 1000.0 nM
[16] = biological target: Aurora kinase B (Homo sapiens) (UniProt Q96GD4); conditions: Compound concentration 1000.0 nM
[17] = biological target: Phosphatidylinositol 4-kinase beta (Homo sapiens) (UniProt Q9UBF8); conditions: Compound concentration 1000.0 nM
[18] = biological target: Mast/stem cell growth factor receptor Kit (Homo sapiens) (UniProt P10721); conditions: Compound concentration 1000.0 nM
Chain of Mast/stem cell growth factor receptor Kit (Homo sapiens) (P10721 whole entry): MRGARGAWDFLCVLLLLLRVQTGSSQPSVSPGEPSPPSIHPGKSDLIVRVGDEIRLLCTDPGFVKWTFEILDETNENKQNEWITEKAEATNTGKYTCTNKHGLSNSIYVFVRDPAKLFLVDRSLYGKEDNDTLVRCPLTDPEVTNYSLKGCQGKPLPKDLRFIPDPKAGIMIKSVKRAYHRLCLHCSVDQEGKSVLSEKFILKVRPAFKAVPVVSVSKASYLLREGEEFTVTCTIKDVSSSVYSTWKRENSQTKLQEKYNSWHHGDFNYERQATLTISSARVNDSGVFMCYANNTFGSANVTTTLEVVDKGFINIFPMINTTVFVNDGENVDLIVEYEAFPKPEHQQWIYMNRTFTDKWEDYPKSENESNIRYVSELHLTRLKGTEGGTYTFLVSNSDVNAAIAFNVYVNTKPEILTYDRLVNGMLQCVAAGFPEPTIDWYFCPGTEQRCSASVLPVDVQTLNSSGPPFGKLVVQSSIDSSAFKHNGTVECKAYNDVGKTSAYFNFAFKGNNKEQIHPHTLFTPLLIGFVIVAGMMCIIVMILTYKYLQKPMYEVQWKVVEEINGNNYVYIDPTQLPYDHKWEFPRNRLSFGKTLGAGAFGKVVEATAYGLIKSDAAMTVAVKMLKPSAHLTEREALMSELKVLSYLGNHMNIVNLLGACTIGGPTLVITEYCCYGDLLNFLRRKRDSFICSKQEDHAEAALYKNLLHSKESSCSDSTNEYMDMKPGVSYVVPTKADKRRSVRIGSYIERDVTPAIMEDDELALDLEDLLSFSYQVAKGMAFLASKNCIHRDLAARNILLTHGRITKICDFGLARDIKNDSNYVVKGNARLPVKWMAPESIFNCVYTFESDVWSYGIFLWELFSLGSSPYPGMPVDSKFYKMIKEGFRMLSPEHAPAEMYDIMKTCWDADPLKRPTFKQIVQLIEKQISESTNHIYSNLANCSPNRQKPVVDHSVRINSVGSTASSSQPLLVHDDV

[19] = biological target: Serine/threonine-protein kinase haspin (Homo sapiens) (UniProt Q8TF76); conditions: Compound concentration 1000.0 nM
[20] = tested on: Epidermal growth factor receptor (Homo sapiens), P00533 [G719S]; conditions: Compound concentration 1000.0 nM
[21] = biological target: Casein kinase I isoform gamma-1 (Homo sapiens) (UniProt Q9HCP0); conditions: Compound concentration 1000.0 nM
[22] = biological target: Histamine H1 receptor (Homo sapiens) (UniProt P35367); conditions: Compound concentration 10.0 uM
Chain of Histamine H1 receptor (Homo sapiens) (P35367 whole entry): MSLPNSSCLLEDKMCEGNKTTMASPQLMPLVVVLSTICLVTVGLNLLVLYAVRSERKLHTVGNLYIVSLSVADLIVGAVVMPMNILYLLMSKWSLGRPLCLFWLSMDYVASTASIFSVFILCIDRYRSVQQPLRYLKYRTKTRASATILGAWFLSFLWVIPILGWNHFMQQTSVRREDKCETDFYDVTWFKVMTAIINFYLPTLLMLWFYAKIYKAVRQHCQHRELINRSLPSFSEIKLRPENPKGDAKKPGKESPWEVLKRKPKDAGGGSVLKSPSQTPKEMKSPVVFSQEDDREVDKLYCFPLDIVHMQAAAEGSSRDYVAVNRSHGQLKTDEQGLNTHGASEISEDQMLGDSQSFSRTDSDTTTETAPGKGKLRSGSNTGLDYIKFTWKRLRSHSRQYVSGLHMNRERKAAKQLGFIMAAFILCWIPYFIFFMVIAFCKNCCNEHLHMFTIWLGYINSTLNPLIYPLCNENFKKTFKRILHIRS

[23] = biological target: 5-hydroxytryptamine receptor 2A (Homo sapiens) (UniProt P28223); conditions: Compound concentration 10.0 uM
Chain of 5-hydroxytryptamine receptor 2A (Homo sapiens) (P28223 whole entry): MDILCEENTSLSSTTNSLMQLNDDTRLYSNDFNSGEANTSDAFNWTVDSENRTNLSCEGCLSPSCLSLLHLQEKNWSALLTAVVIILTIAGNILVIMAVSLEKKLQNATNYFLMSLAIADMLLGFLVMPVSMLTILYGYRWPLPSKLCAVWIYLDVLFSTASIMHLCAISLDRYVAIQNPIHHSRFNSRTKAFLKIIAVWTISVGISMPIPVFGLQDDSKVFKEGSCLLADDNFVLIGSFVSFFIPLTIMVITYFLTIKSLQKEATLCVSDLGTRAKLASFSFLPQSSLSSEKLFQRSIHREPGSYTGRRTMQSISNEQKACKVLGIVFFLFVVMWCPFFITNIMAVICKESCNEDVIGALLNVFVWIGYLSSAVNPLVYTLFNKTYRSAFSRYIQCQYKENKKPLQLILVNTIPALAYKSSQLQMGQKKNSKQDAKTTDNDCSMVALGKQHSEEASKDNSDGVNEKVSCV

[24] = biological target: Serine/threonine-protein kinase 38 (Homo sapiens) (UniProt Q15208); conditions: Compound concentration 1000.0 nM
[25] = biological target: Tyrosine-protein kinase ZAP-70 (Homo sapiens) (UniProt P43403); conditions: Compound concentration 1000.0 nM
[26] = biological target: Mitogen-activated protein kinase kinase kinase 2 (Homo sapiens) (UniProt Q9Y2U5); conditions: Compound concentration 1000.0 nM
[27] = biological target: Rhodopsin kinase GRK1 (Homo sapiens) (UniProt Q15835); conditions: Compound concentration 1000.0 nM
Chain of Rhodopsin kinase GRK1 (Homo sapiens) (Q15835 whole entry): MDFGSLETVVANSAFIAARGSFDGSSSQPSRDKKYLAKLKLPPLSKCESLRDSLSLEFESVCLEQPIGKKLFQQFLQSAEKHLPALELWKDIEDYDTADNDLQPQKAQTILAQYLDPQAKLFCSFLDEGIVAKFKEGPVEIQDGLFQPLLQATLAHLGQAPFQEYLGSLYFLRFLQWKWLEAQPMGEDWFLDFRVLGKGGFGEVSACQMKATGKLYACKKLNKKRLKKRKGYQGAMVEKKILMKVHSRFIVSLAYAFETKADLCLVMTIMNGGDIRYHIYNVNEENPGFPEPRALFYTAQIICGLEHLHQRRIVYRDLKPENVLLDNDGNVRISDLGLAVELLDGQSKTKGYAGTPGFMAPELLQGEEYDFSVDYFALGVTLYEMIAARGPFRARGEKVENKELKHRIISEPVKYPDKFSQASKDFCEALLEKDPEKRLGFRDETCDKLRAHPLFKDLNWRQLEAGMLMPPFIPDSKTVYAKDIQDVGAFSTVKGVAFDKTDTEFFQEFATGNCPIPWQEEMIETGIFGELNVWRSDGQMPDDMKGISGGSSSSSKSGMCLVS

[28] = biological target: Citron Rho-interacting kinase (Homo sapiens) (UniProt O14578); conditions: Compound concentration 1000.0 nM
[29] = biological target: Serine/threonine-protein kinase PLK1 (Homo sapiens) (UniProt P53350); conditions: Compound concentration 1000.0 nM
Chain of Serine/threonine-protein kinase PLK1 (Homo sapiens) (P53350 whole entry): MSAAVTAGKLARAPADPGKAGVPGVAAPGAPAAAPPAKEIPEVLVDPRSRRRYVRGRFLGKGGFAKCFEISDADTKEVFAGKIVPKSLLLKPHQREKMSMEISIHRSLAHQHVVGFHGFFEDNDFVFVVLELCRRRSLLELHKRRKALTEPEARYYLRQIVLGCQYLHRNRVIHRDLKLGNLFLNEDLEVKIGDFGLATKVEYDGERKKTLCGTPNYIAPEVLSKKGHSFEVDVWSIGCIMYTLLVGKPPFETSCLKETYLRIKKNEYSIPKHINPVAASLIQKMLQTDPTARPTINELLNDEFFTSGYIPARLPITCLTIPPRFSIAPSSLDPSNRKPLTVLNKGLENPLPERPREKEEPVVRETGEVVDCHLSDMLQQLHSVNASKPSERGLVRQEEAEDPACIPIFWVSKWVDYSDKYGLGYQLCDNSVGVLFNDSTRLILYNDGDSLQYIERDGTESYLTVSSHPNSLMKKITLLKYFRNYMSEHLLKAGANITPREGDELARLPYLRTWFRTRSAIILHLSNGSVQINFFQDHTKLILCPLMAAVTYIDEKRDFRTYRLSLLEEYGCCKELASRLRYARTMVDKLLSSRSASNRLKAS

[30] = biological target: Serine/threonine-protein kinase 17A (Homo sapiens) (UniProt Q9UEE5); conditions: Compound concentration 1000.0 nM
[31] = biological target: Mitogen-activated protein kinase kinase kinase 15 (Homo sapiens) (UniProt Q6ZN16); conditions: Compound concentration 1000.0 nM
[32] = biological target: Serine/threonine-protein kinase DCLK3 (Homo sapiens) (UniProt Q9C098); conditions: Compound concentration 1000.0 nM
[33] = biological target: Serine/threonine-protein kinase Nek4 (Homo sapiens) (UniProt P51957); conditions: Compound concentration 1000.0 nM
Chain of Serine/threonine-protein kinase Nek4 (Homo sapiens) (P51957 whole entry, looked up, the tested form may be a part): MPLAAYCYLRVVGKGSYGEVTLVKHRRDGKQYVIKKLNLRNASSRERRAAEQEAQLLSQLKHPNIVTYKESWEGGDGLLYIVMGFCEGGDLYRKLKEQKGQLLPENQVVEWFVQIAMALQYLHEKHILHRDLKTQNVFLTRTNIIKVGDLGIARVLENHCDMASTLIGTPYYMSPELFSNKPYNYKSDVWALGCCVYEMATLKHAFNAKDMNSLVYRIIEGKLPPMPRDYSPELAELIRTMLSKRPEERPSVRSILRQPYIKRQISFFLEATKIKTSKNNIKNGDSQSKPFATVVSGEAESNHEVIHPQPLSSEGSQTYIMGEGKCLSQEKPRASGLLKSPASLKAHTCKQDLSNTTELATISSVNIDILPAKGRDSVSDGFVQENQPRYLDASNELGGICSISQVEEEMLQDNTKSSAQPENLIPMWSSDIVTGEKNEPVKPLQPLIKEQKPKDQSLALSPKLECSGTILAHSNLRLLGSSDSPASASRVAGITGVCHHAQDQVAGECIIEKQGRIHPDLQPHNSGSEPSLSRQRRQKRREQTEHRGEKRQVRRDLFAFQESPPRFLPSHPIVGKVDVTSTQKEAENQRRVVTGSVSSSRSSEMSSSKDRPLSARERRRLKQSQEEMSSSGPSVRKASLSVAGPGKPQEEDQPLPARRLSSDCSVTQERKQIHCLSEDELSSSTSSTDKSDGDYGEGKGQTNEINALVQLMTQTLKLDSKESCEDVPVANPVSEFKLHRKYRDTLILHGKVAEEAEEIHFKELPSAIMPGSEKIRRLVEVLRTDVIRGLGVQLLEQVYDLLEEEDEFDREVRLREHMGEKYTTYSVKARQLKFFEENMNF

[34] = biological target: Ankyrin repeat and protein kinase domain-containing protein 1 (Homo sapiens) (UniProt Q8NFD2); conditions: Compound concentration 1000.0 nM
[35] = biological target: Calcium/calmodulin-dependent protein kinase type II subunit delta (Homo sapiens) (UniProt Q13557); conditions: Compound concentration 1000.0 nM
Chain of Calcium/calmodulin-dependent protein kinase type II subunit delta (Homo sapiens) (Q13557 whole entry): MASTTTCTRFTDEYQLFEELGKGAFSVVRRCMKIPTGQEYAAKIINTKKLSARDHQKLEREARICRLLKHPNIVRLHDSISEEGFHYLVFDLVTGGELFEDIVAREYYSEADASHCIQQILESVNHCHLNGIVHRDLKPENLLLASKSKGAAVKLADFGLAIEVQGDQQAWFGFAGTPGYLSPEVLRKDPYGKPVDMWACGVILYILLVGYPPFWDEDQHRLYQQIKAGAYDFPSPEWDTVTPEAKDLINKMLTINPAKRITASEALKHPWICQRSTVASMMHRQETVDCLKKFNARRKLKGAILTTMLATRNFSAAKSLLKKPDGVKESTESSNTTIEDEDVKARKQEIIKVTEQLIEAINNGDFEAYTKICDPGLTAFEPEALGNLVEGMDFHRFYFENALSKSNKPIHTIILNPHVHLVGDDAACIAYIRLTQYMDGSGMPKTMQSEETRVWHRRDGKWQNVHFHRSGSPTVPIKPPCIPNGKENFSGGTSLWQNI

[36] = biological target: Beta-1 adrenergic receptor (Homo sapiens) (UniProt P08588); conditions: Compound concentration 10.0 uM
[37] = biological target: Serine/threonine-protein kinase tousled-like 2 (Homo sapiens) (UniProt Q86UE8); conditions: Compound concentration 1000.0 nM
[38] = biological target: D(1B) dopamine receptor (Homo sapiens) (UniProt P21918); conditions: Compound concentration 10.0 uM
[39] = biological target: Calcium/calmodulin-dependent protein kinase type 1D (Homo sapiens) (UniProt Q8IU85); conditions: Compound concentration 1000.0 nM

O=C(NCc1ncc(C(F)(F)F)cc1Cl)c1ccc2c(c1)C1(CCS(=O)(=O)CC1)[C@H](C1CC1)N2S(=O)(=O)c1ccc(F)cc1 [BAY-784]
inactive: residual activity [1] 100% | residual activity [2] 100% | residual activity [3] 83% | residual activity [4] 74% | residual activity [5] 57% | residual activity [6] 99% | inhibition [7] 10.4% | residual activity [8] 78% | inhibition [9] 1.57% | residual activity [10] 100% | residual activity [11] 64% | residual activity [12] 99% | residual activity [13] 84% | residual activity [14] 100% | residual activity [15] 64% | residual activity [16] 66% | residual activity [17] 78% | residual activity [18] 100% | residual activity [19] 87% | residual activity [20] 92% | residual activity [21] 86% | inhibition [22] 24.6% | inhibition [23] -4.7% | residual activity [24] 92% | residual activity [25] 84% | residual activity [26] 66% | residual activity [27] 80% | residual activity [28] 100% | residual activity [29] 86% | residual activity [30] 100% | residual activity [31] 96% | residual activity [32] 92% | residual activity [33] 99% | residual activity [34] 89% | residual activity [35] 100% | inhibition [36] -0.08% | residual activity [37] 100% | inhibition [38] 19.1% | residual activity [39] 85%

O=C(NCc1ncc(C(F)(F)F)cc1Cl)c1ccc2c(c1)C1(CCS(=O)(=O)CC1)[C@@H](C1CC1)N2S(=O)(=O)c1ccc(F)cc1 [BAY-786]
inactive: residual activity [1] 100% | residual activity [2] 100% | residual activity [3] 85% | residual activity [4] 68% | residual activity [5] 72% | residual activity [6] 80% | inhibition [7] -1.55% | residual activity [8] 90% | inhibition [9] -5.22% | residual activity [10] 100% | residual activity [11] 73% | residual activity [12] 90% | residual activity [13] 73% | residual activity [14] 97% | residual activity [15] 72% | residual activity [16] 66% | residual activity [17] 100% | residual activity [18] 82% | residual activity [19] 77% | residual activity [20] 86% | residual activity [21] 90% | inhibition [22] 8.01% | inhibition [23] 5.01% | residual activity [24] 84% | residual activity [25] 72% | residual activity [26] 88% | residual activity [27] 79% | residual activity [28] 84% | residual activity [29] 82% | residual activity [30] 73% | residual activity [31] 78% | residual activity [32] 69% | residual activity [33] 99% | residual activity [34] 76% | residual activity [35] 100% | inhibition [36] -1.82% | residual activity [37] 100% | inhibition [38] -0.49% | residual activity [39] 99%
